Measured values as given in EP0545103A1, “Insecticidal, acaricidal and molluscicidal 1-(substituted) thioalkylpyrroles” (priority 1991, dated 1993).

How the values were obtained:
Type in all cases: in vivo
[1] = tested on: Empoasca abrupta, adult, western potato leafhopper; test: Western potato leafhopper systemic uptake test; set-up: key: 0: no effect; 10-25% kill; 26-35% kill; 36-45% kill; 46-55% kill; 56-65% kill; 66-75% kill; 76-85% kill; 86-99% kill; 9: 100% kill; conditions: 100 ppm
How it was run: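 Leafhopper mortality, rated on a scale, scored 2 days after about 10 adults were confined with a leaf in a moist dish. The leaf came from a cut lima bean stem that had taken up the compound emulsion (100 ppm and 10-fold dilutions) over 3 days at 27 °C.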

[2] = tested on: Spodoptera eridania, 3rd instar larvae, southern armyworm; test: Southern armyworm 7-day residual test; conditions: R designates Residual: 7-day residual foliage, concentration not given; for ARMYWORM Day 3 R: rating at 3 days; for ARMYWORM Day 5 R: rating at 5 days
How it was run: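 Third-instar southern armyworm larvae were exposed to lima bean foliage that had been treated, then held 7 days under greenhouse lamps simulating bright sun for 14 h per day. Treatment solutions were diluted in water from a 10,000 ppm stock in 35% acetone. Results are scale ratings.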

[3] = tested on: Heliothis virescens, egg, tobacco budworm; test: Tobacco budworm egg test, dipped cotton leaf and eggs; set-up: key: 0: no effect; 10-25% kill; 26-35% kill; 36-45% kill; 46-55% kill; 56-65% kill; 66-75% kill; 76-85% kill; 86-99% kill; 9: 100% kill; conditions: mortality rating after 3 days
How it was run: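 Scoring is by mortality counts after 3 days, graded on a rating scale. Tobacco budworm eggs (6-30 h old) on cheesecloth and a young cotton leaf were each dipped about 3 s in the test suspension. Suspensions were made from a 10,000 ppm stock in 35% acetone/water with further water dilutions.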

[4] = tested on: Diabrotic undecimpunctata howardi, 3rd instar southern corn rootworm; test: Southern corn rootworm soil test; set-up: key: 0: no effect; 10-25% kill; 26-35% kill; 36-45% kill; 46-55% kill; 56-65% kill; 66-75% kill; 76-85% kill; 86-99% kill; 9: 100% kill; conditions: mortality rating after 6 days
How it was run: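 Soil test with ten 3rd instar larvae per jar, mortality read after 6 days and missing larvae counted as dead; scores on a rating scale. Doses were 1.25 and 0.25 mg a.i. per jar, corresponding to roughly 50 and 10 kg/ha, loaded on talc from acetone and mixed into moist soil with millet seed as food.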

[5] = tested on: Spodoptera eridania, 3rd instar larvae, southern armyworm; test: Southern armyworm 3rd instar test, dipped limabean leaf; set-up: key: 0: no effect; 10-25% kill; 26-35% kill; 36-45% kill; 46-55% kill; 56-65% kill; 66-75% kill; 76-85% kill; 86-99% kill; 9: 100% kill; conditions: for ARMYWORM Day 3: rating at 3 days; for ARMYWORM Day 5: rating at 5 days
How it was run: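 Ten 3rd instar larvae fed on limabean leaves that had been dipped for 3 s in test solution and dried. Test solutions were diluted in water from a 10,000 ppm stock in 35% acetone/water. Ratings at days 3 and 5 covered death, feeding reduction and abnormal molting.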

[6] = tested on: Spodoptera eridania, 3rd instar larvae, southern armyworm; test: Southern armyworm systemic uptake (stem systemic) test; set-up: key: 0: no effect; 10-25% kill; 26-35% kill; 36-45% kill; 46-55% kill; 56-65% kill; 66-75% kill; 76-85% kill; 86-99% kill; 9: 100% kill; conditions: cut stem in emulsion 3 days
[7] = systemic uptake, rating scale 0-9
[8] = cut stem in emulsion 3 days, mortality rating after 2 days

| Compound | LEAFHOPPER Systemic [1, 7] | ARMYWORM Day 3 R [2] | ARMYWORM Day 5 R [2] | TOBACCO BUDWORM Egg ([3]; 100 ppm) | TOBACCO BUDWORM Egg ([3]; 1000 ppm) | SOUTHERN CORN ROOTWORM ([4]; 50 (ppm as headed)) | ARMYWORM Day 3 ([5]; 10 ppm) | ARMYWORM Day 5 ([5]; 10 ppm) | ARMYWORM Day 3 ([5]; 100 ppm) | ARMYWORM Day 5 ([5]; 100 ppm) | ARMYWORM Day 3 ([5]; 1000 ppm) | ARMYWORM Day 5 ([5]; 1000 ppm) | ARMYWORM Stem Sys [6] | LEAFHOPPER Systemic [1, 8] | SOUTHERN CORN ROOTWORM ([4]; 1 (ppm as headed)) | SOUTHERN CORN ROOTWORM ([4]; 10 (ppm as headed)) | TOBACCO BUDWORM Egg ([3]; 300 ppm) |
| --- | --- | --- | --- | --- | --- | --- | --- | --- | --- | --- | --- | --- | --- | --- | --- | --- | --- |
| CCOC(=S)SCn1c(-c2ccc(Cl)cc2)c(C#N)c(Br)c1C(F)(F)F [Example 29] | 0 | 9 (100% kill) | 9 (100% kill) | 0 | 4 (46-55% kill) | 9 (100% kill) | 9 (100% kill) | 9 (100% kill) | 9 (100% kill) | 9 (100% kill) | 9 (100% kill) | 9 (100% kill) | 0 |  |  |  |  |
| N=C(N)SCn1c(-c2ccc(Cl)c(Cl)c2)c(Br)c(C(F)(F)F)c1C(F)(F)F [Example 18] | 0 | 9 (100% kill) | 9 (100% kill) |  | 0 | 0 | 0 | 0 | 9 (100% kill) | 9 (100% kill) | 9 (100% kill) | 9 (100% kill) | 0 |  |  |  |  |
| N#Cc1c(Cl)c(C(F)(F)F)n(CSC2=NCCN2)c1-c1ccc(Cl)cc1 [Example 4] |  | 9 (100% kill) | 9 (100% kill) | 9 (100% kill) | 9 (100% kill) | 0 | 9 (100% kill) | 9 (100% kill) | 9 (100% kill) | 9 (100% kill) | 9 (100% kill) | 9 (100% kill) | 0 | 0 |  |  |  |
| CC(C)OC(=S)SCn1c(-c2ccc(Cl)cc2)c(C#N)c(Br)c1C(F)(F)F [Example 30] | 0 | 9 (100% kill) | 9 (100% kill) | 0 | 0 | 9 (100% kill) | 9 (100% kill) | 9 (100% kill) | 9 (100% kill) | 9 (100% kill) | 9 (100% kill) | 9 (100% kill) | 0 |  |  |  |  |
| CN(C)C(=S)SCn1c(-c2ccc(Cl)cc2)c(C#N)c(Cl)c1C(F)(F)F [Example 21] |  | 9 (100% kill) | 9 (100% kill) | 0 | 0 | 9 (100% kill) | 9 (100% kill) | 9 (100% kill) | 9 (100% kill) | 9 (100% kill) | 9 (100% kill) | 9 (100% kill) | 0 | 0 | 0 | 0 |  |
| CN=C(NC)SCn1c(Cl)c(C#N)c(Cl)c1-c1ccc(Cl)c(Cl)c1 [Example 19] | 0 | 9 (100% kill) | 9 (100% kill) |  | 0 | 0 | 0 | 0 | 9 (100% kill) | 9 (100% kill) | 9 (100% kill) | 9 (100% kill) | 0 |  |  |  |  |
| N#Cc1c(Br)c(C(F)(F)F)n(CSC2=NCCS2)c1-c1ccc(Cl)cc1 [Example 16] | 0 | 9 (100% kill) | 9 (100% kill) | 0 | 0 | 9 (100% kill) | 9 (100% kill) | 9 (100% kill) | 9 (100% kill) | 9 (100% kill) | 9 (100% kill) | 9 (100% kill) | 4 (46-55% kill) |  |  |  |  |
| N#Cc1c(Br)c(C(F)(F)F)n(CSC2=NCCN2)c1-c1ccc(Cl)cc1 [Example 7] |  | 9 (100% kill) | 9 (100% kill) | 0 | 9 (100% kill) | 9 (100% kill) | 9 (100% kill) | 9 (100% kill) | 9 (100% kill) | 9 (100% kill) | 9 (100% kill) | 9 (100% kill) | 0 | 0 | 0 | 0 | 8 (86-99% kill) |
| CN=C(NC)SCn1c(Cl)c(Cl)c(C#N)c1-c1ccc(Cl)c(Cl)c1 [Example 15] | 0 | 9 (100% kill) | 9 (100% kill) | 0 | 0 | 0 | 9 (100% kill) | 9 (100% kill) | 9 (100% kill) | 9 (100% kill) | 9 (100% kill) | 9 (100% kill) | 0 |  |  |  |  |
